From PMC11714206, “Massively Parallel Screening of Toll/Interleukin‐1 Receptor (TIR)‐Derived Peptides Reveals Multiple Toll‐Like Receptors (TLRs)‐Targeting Immunomodulatory Peptides” (Advanced Science, 2024)

Biological target: T1, MyD88^TIR (Homo sapiens, UniProt Q99836)
T1 construct: MyD88 (residues 148–296); 6xHis; made in house; host or cells: E. coli BL21 (DE3)
Assay: T‐Surf phage library (P8 and P3) selection against MyD88^TIR, four rounds, NGS read counts
Format: binding
Conditions: for P3_MyD88 Rank (after) / P3_MyD88 Rank (before): P3 library; for P8_MyD88 Rank (after) / P8_MyD88 Rank (before): P8 library; for Population: 4th round of selection against MyD88 TIR, share of NGS reads
Description: T‐Surf libraries were screened against the immobilized TIR domains of two major human TLR adaptor proteins, MAL^TIR and MyD88^TIR, allowing cross‐species selection of TIR‐binding motifs with 190 946 TIR‐derived peptides in a single binding assay (Scheme 1). Enriched phage pools from the fourth round of selection were analyzed using NGS after barcoding the peptide‐coding regions of the phage pools.
Phage display screening was performed by coating two wells of a 96‐well plate (Maxisorp, Thermo Fisher Scientific) with 100 µL of 5 µg mL^−1 TIR domains overnight; then, the coated wells were blocked with 200 µL of blocking buffer (0.2% BSA in PBS) and set aside for 1 h at 4 °C with gentle shaking. Next, 100 µL of the phage library was added to the wells and incubated for 1 h at room temperature (RT; 20 – 22 °C) with gentle shaking. The plate was washed four times with PBS containing 0.5% Tween‐20; the bound phages were eluted by adding 100 µL of 100 mM HCl to each well. The elute was neutralized with 10 µL of 1.0 M Tris‐HCl (pH 11.0). E. coli TG1 cells were grown to the log phase (A600 = ≈0.6), and 1 mL of the culture was incubated with 100 µL of the eluted phages for 30 min at 37 °C, with shaking at 200 rpm. Next, 1 µL of M13KO7 helper phages was added, followed by incubation for 45 min at 37 °C, with shaking. Subsequently, the cells were transferred to 25 mL of 2× yeast extract tryptone/carbenicillin/kanamycin medium and incubated overnight at 37 °C with shaking at 200 rpm. The amplified phages were precipitated with 20% PEG‐8000/2.5 M NaCl to be used for the next round of selection.
The naïve T‐Surf libraries in P8 and P3 and the enriched phage pools after four rounds were barcoded for NGS as previously described.^[ [59] ^] Briefly, 5 µL of the phage pool was used as a template for 20 cycles of a 50 µL PCR reaction using […] each of forward and reverse barcoded primers and PrimeSTAR Max DNA Polymerase. The PCR products were purified using Expin Gel SV (GeneAll). The NGS samples were quantified using qPCR, following the qPCR Quantification Protocol Guide (KAPA Library Quantification kits for Illumina Sequencing Platform), and qualified using the TapeStation High Sensitivity D1000 ScreenTape (Agilent Technologies). The indexed libraries were further sequenced by Macrogen (Seoul, Republic of Korea) using the NovaSeq platform (Illumina) with 100 bp paired‐end reads. The reads were demultiplexed by barcodes and filtered for an average Phred quality score of at least 30, followed by trimming the flanking consensus sequences using Cutadapt (version 2.3). Peptide sequence populations were analyzed according to the read counts.

[1] = selection against MyD88, rank after grouping
[2] = selection against MyD88, rank before grouping
[3] = selection against MyD88, rank by count after grouping
[4] = selection against MyD88, rank by count before grouping
[5] = selection against MyD88 TIR, rank by count after grouping
[6] = selection against MyD88 TIR, rank by count before grouping
[7] = 4R selection against MyD88, rank after grouping
[8] = 4R selection against MyD88, rank before grouping
[9] = P8_MyD88: rank by count after grouping
[10] = P8_MyD88: rank by count before grouping
[11] = P8_MyD88 pool: P8 T-Surf phage library
[12] = P8_MyD88: rank by NGS read count after grouping
[13] = P8_MyD88: rank by NGS read count before grouping
[14] = P3_MyD88: rank by count after grouping
[15] = P3_MyD88: rank by count before grouping
[16] = P3_MyD88 pool: P3 T-Surf phage library

T1 sequence (Q99836 148-296): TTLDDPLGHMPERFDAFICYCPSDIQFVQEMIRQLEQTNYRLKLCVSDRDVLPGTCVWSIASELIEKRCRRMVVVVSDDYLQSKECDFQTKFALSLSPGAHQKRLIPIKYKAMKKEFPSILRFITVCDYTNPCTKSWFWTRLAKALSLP

With YTALTNSSFHTFRDNH as the sequence, how does the “P3_MyD88 Rank (after)” value [1] read?
The value was 514.

What about the “P3_MyD88 Rank (before)” value [2] of the same sequence?
Its value is 1697.

How did the “P3_MyD88 Rank (after)” value [3] turn out when NHHLDPPRGKANKPGILG was run?
Its value is 702.

What about the “P3_MyD88 Rank (before)” value [4] of the same sequence?
The value was 3461.

DPQDLDWFYERLISRILQ was tested. Which “P8_MyD88 Rank (after)” value [1] did it give?
Its value is 549.

And the “P8_MyD88 Rank (before)” value [2]?
The value was 2787.

Which “P8_MyD88 Rank (after)” value [5] does the source give for NYATSRWALDELVRIF here?
Its value is 227.

And the “P8_MyD88 Rank (before)” value [6]?
Its value is 419.

For NYASSPWALDELVKIF, which “P8_MyD88 Rank (after)” value [5] is on record?
The value was 197.

What about the “P8_MyD88 Rank (before)” value [6] of the same sequence?
Its value is 295.

With YLKCGYPCFCDRLRFA as the sequence, how does the “P3_MyD88 Rank (after)” value [7] read?
Its value is 620.

And the “P3_MyD88 Rank (before)” value [8]?
Its value is 1566.

Which results are given for SWAVDELLQILHARELF?
P8_MyD88 Rank (after) [7]: 625; P8_MyD88 Rank (before) [8]: 3756

For NYADSSWALDELLAIM, which “Rank (after)” value [9] is on record?
Its value is 164.

And the “Rank (before)” value [10]?
Its value is 184.

What about the Population [11] of the same sequence?
Its Population is 0.00732%.

For LGYYWNDWEYVVGIEE, which “Rank (after)” value [12] is on record?
The value was 884.

And the “Rank (before)” value [13]?
The value was 3218.

Which “P3_MyD88 Rank (after)” value [3] does the source give for YTALNNMGFHTFRGND here?
The value was 705.

And the “P3_MyD88 Rank (before)” value [4]?
The value was 1627.

For DTKLKKGRKHCAGTAA, which “Rank (after)” value [14] is on record?
Its value is 454.

What about the “Rank (before)” value [15] of the same sequence?
Its value is 2099.

Which “P3_MyD88 Rank (after)” value [7] does the source give for EWIREQLCLALKERLP here?
The value was 637.

What about the “P3_MyD88 Rank (before)” value [8] of the same sequence?
Its value is 2133.

Which Population [16] does the source give for KNLLNELVSKNIRTFM here?
Its Population is 0.00466%.

IQCRNATSPAALLIGR was tested. Which “P8_MyD88 Rank (after)” value [7] did it give?
The value was 651.

And the “P8_MyD88 Rank (before)” value [8]?
The value was 3652.

For DWVWDYLLQILHARELF, which “Rank (after)” value [12] is on record?
The value was 995.

What about the “Rank (before)” value [13] of the same sequence?
The value was 2450.

How did the “P8_MyD88 Rank (after)” value [3] turn out when DPQVLERKYERLVKLV was run?
The value was 718.

What about the “P8_MyD88 Rank (before)” value [4] of the same sequence?
The value was 2650.

Which Population [16] does the source give for YAFTGHLHATL here?
Its Population is 0.00291%.

How did the “Rank (after)” value [14] turn out when LKVESWRQALEKAGN was run?
Its value is 126.

What about the “Rank (before)” value [15] of the same sequence?
Its value is 1081.

For EWMREQLRPPLKERLP, which “Rank (after)” value [14] is on record?
The value was 421.

And the “Rank (before)” value [15]?
The value was 2179.

Which “Rank (after)” value [9] does the source give for WALDEVLQILRARELF here?
Its value is 419.

What about the “Rank (before)” value [10] of the same sequence?
Its value is 1421.

With YYLDHSHPRKQNGEFG as the sequence, how does the “P3_MyD88 Rank (after)” value [1] read?
The value was 556.

And the “P3_MyD88 Rank (before)” value [2]?
The value was 1436.

For SSFRGGLWRLLELSKK, which Population [16] is on record?
The Population was 0.00349%.

With LGYHWIDWEDFVGIEN as the sequence, how does the “Rank (after)” value [12] read?
Its value is 919.

What about the “Rank (before)” value [13] of the same sequence?
The value was 3280.

For DLYDILYLYGRHTIFV, which “Rank (after)” value [12] is on record?
The value was 881.

What about the “Rank (before)” value [13] of the same sequence?
The value was 2584.

How did the “Rank (after)” value [12] turn out when HLIQQGIELHLHQLHL was run?
Its value is 941.

What about the “Rank (before)” value [13] of the same sequence?
The value was 3556.

DPQGLGWFYERLVSLF was tested. Which “P8_MyD88 Rank (after)” value [5] did it give?
Its value is 223.

What about the “P8_MyD88 Rank (before)” value [6] of the same sequence?
Its value is 2678.

Which results are given for LKWEGPYFWRKMRYAL?
Rank (after) [14]: 477; Rank (before) [15]: 2457

For WALVKLLKILYANDTM, which “Rank (after)” value [12] is on record?
The value was 949.

What about the “Rank (before)” value [13] of the same sequence?
The value was 1406.

NELVHEWSSKLMSLGV was tested. Which “P3_MyD88 Rank (after)” value [5] did it give?
Its value is 287.

And the “P3_MyD88 Rank (before)” value [6]?
The value was 3397.

How did the “P3_MyD88 Rank (after)” value [5] turn out when LKVESWRQALAKAGRL was run?
The value was 197.

And the “P3_MyD88 Rank (before)” value [6]?
Its value is 2486.

DSLFWDRLLYSL was tested. Which Population [11] did it give?
The Population was 0.00732%.

SELRVVDDGSVSPLK was tested. Which “P3_MyD88 Rank (after)” value [5] did it give?
Its value is 210.

And the “P3_MyD88 Rank (before)” value [6]?
The value was 3038.

YTALTYSGFHTFRGND was tested. Which “P3_MyD88 Rank (after)” value [7] did it give?
Its value is 645.

What about the “P3_MyD88 Rank (before)” value [8] of the same sequence?
The value was 1641.

What does the source list for VANILGYHWIAREHFV?
Rank (after) [9]: 474; Rank (before) [10]: 2164

What does the source list for NQLRNAQTAAANLSGW?
P3_MyD88 Rank (after) [5]: 233; P3_MyD88 Rank (before) [6]: 3463

With LGYHWEYWVYFVGIED as the sequence, how does the “Rank (after)” value [12] read?
The value was 1000.

And the “Rank (before)” value [13]?
The value was 3237.

How did the “P8_MyD88 Rank (after)” value [7] turn out when LEANDSLFWDRLIRMIE was run?
The value was 635.

And the “P8_MyD88 Rank (before)” value [8]?
Its value is 3374.

With SSFRESLWRLLELSKK as the sequence, how does the Population [16] read?
The Population was 0.0032%.

With YLMWPQEEEEIPLFWH as the sequence, how does the “P8_MyD88 Rank (after)” value [5] read?
The value was 257.

And the “P8_MyD88 Rank (before)” value [6]?
Its value is 447.

YQWRNALSAAANLCGW was tested. Which “P3_MyD88 Rank (after)” value [1] did it give?
The value was 569.

And the “P3_MyD88 Rank (before)” value [2]?
Its value is 1617.

Which results are given for SSFRQGLWRLRELSKK?
Rank (after) [14]: 405; Rank (before) [15]: 3229

Which “P8_MyD88 Rank (after)” value [3] does the source give for LGYHWIDLGYFVGIED here?
The value was 767.

And the “P8_MyD88 Rank (before)” value [4]?
The value was 3249.

How did the Population [16] turn out when LKVESWRQAQEKAGKL was run?
The Population was 0.00349%.
